What was measured:
[1] = human gut metagenome, 24 h, 2 µM
[2] = The drug is tested on Z-012 corresponding to metagenome with ENA study accession number: PRJEB37062 and ENA sample accession number: ERS12561812 for biotransformation under anaerobic condition. The drug concentrations were measured over 9 timepoints collected between 0 and 24 hours of incubation by liquid-chromatography-coupled mass spectrometry (LC–MS); conditions: 2 µM
[3] = human gut metagenome, 24 h, 2 µM; remark: listed apart in the source
[4] = human gut metagenome, 24 h, 2 µM; remark: listed apart in the source
[5] = human gut metagenome, 24 h, 2 µM; remark: listed apart in the source
[6] = The drug is tested on Z-013 corresponding to rabbit gut metagenome with ENA study accession number: PRJEB37062 and ENA sample accession number: ERS12561813 for biotransformation under anaerobic condition. The drug concentrations were measured over 9 timepoints collected between 0 and 24 hours of incubation by liquid-chromatography-coupled mass spectrometry (LC–MS); conditions: 2 µM
[7] = The drug is tested on WLS-310 corresponding to human gut metagenome with ENA study accession number: PRJEB37062 and ENA sample accession number: ERS12561785 for biotransformation under anaerobic condition. The drug concentrations were measured over 9 timepoints collected between 0 and 24 hours of incubation by liquid-chromatography-coupled mass spectrometry (LC–MS); conditions: 2 µM
[8] = The drug is tested on Z-025 corresponding to rabbit gut metagenome with ENA study accession number: PRJEB37062 and ENA sample accession number: ERS12561824 for biotransformation under anaerobic condition. The drug concentrations were measured over 9 timepoints collected between 0 and 24 hours of incubation by liquid-chromatography-coupled mass spectrometry (LC–MS); conditions: 2 µM
[9] = The drug is tested on Z-029 corresponding to rat gut metagenome with ENA study accession number: PRJEB37062 and ENA sample accession number: ERS12561828 for biotransformation under anaerobic condition. The drug concentrations were measured over 9 timepoints collected between 0 and 24 hours of incubation by liquid-chromatography-coupled mass spectrometry (LC–MS); conditions: 2 µM
[10] = human gut metagenome, 24 h, 2 µM; remark: listed apart in the source
[11] = The drug is tested on WLS-077 corresponding to human gut metagenome with ENA study accession number: PRJEB37062 and ENA sample accession number: ERS12561750 for biotransformation under anaerobic condition. The drug concentrations were measured over 9 timepoints collected between 0 and 24 hours of incubation by liquid-chromatography-coupled mass spectrometry (LC–MS); conditions: 2 µM
[12] = human gut metagenome, 24 h, 2 µM; remark: listed apart in the source
[13] = human gut metagenome, 24 h, 2 µM; remark: listed apart in the source
[14] = The drug is tested on Z-022 corresponding to mouse gut metagenome with ENA study accession number: PRJEB37062 and ENA sample accession number: ERS12561821 for biotransformation under anaerobic condition. The drug concentrations were measured over 9 timepoints collected between 0 and 24 hours of incubation by liquid-chromatography-coupled mass spectrometry (LC–MS); conditions: 2 µM
[15] = The drug is tested on Z-001 corresponding to mouse gut metagenome with ENA study accession number: PRJEB37062 and ENA sample accession number: ERS12561801 for biotransformation under anaerobic condition. The drug concentrations were measured over 9 timepoints collected between 0 and 24 hours of incubation by liquid-chromatography-coupled mass spectrometry (LC–MS); conditions: 2 µM
[16] = human gut metagenome, 24 h, 2 µM; remark: listed apart in the source
[17] = The drug is tested on Z-011 corresponding to mouse gut metagenome with ENA study accession number: PRJEB37062 and ENA sample accession number: ERS12561811 for biotransformation under anaerobic condition. The drug concentrations were measured over 9 timepoints collected between 0 and 24 hours of incubation by liquid-chromatography-coupled mass spectrometry (LC–MS); conditions: 2 µM
[18] = human gut metagenome, 24 h, 2 µM; remark: listed apart in the source
[19] = The drug is tested on Z-018 corresponding to pig gut metagenome with ENA study accession number: PRJEB37062 and ENA sample accession number: ERS12561817 for biotransformation under anaerobic condition. The drug concentrations were measured over 9 timepoints collected between 0 and 24 hours of incubation by liquid-chromatography-coupled mass spectrometry (LC–MS); conditions: 2 µM
[20] = human gut metagenome, 24 h, 2 µM; remark: listed apart in the source
Note: call rule not given here.

Structure (SMILES)	Bacterial Biotransformation [1]	Bacterial Biotransformation [2]	Bacterial Biotransformation [3]	Bacterial Biotransformation [4]	Bacterial Biotransformation [5]	Bacterial Biotransformation [6]	Bacterial Biotransformation [7]	Bacterial Biotransformation [8]	Bacterial Biotransformation [9]	Bacterial Biotransformation [10]	Bacterial Biotransformation [11]	Bacterial Biotransformation [12]	Bacterial Biotransformation [13]	Bacterial Biotransformation [14]	Bacterial Biotransformation [15]	Bacterial Biotransformation [16]	Bacterial Biotransformation [17]	Bacterial Biotransformation [18]	Bacterial Biotransformation [19]	Bacterial Biotransformation [20]
OC(c1cc(C(F)(F)F)nc2c(C(F)(F)F)cccc12)C1CCCCN1 (stereo not given) [MEFLOQUINE]	Compound NOT metabolized	Compound NOT metabolized	Compound NOT metabolized	Compound metabolized	Compound NOT metabolized	Compound NOT metabolized	Compound metabolized	Compound NOT metabolized	Compound metabolized	Compound NOT metabolized	Compound metabolized	Compound metabolized	Compound metabolized	Compound metabolized	Compound NOT metabolized	Compound metabolized	Compound metabolized	Compound metabolized	Compound metabolized	Compound metabolized
CC(=O)OCC(=O)NCCCOc1cccc(CN2CCCCC2)c1 [ROXATIDINE ACETATE]	Compound metabolized	Compound metabolized	Compound metabolized	Compound metabolized	Compound metabolized	Compound NOT metabolized	Compound metabolized	Compound metabolized	Compound metabolized	Compound metabolized	Compound metabolized	Compound metabolized	Compound metabolized	Compound metabolized	Compound metabolized	Compound metabolized	Compound metabolized	Compound metabolized	Compound metabolized	Compound metabolized
CC(=O)Nc1ccc(OC(C)=O)cc1 [DIACETAMATE]	Compound metabolized	Compound metabolized	Compound metabolized	Compound metabolized	Compound metabolized	Compound metabolized	Compound metabolized	Compound metabolized	Compound metabolized	Compound metabolized	Compound metabolized	Compound metabolized	Compound metabolized	Compound metabolized	Compound metabolized	Compound metabolized	Compound metabolized	Compound metabolized	Compound metabolized	Compound metabolized
CCN(CC)CCOC(=O)C1(C2CCCCC2)CCCCC1 [DICYCLOMINE]	Compound NOT metabolized	Compound metabolized	Compound NOT metabolized	Compound NOT metabolized	Compound NOT metabolized	Compound NOT metabolized	Compound metabolized	Compound NOT metabolized	Compound NOT metabolized	Compound metabolized	Compound NOT metabolized	Compound metabolized	Compound NOT metabolized	Compound metabolized	Compound NOT metabolized	Compound metabolized	Compound NOT metabolized	Compound NOT metabolized	Compound NOT metabolized	Compound metabolized
COC(=O)[C@H](c1ccccc1Cl)N1CCc2sccc2C1.O=S(=O)(O)O [CLOPIDOGREL BISULFATE]	Compound metabolized	Compound metabolized	Compound metabolized	Compound metabolized	Compound metabolized	Compound metabolized	Compound metabolized	Compound metabolized	Compound NOT metabolized	Compound NOT metabolized	Compound metabolized	Compound metabolized	Compound metabolized	Compound metabolized	Compound metabolized	Compound metabolized	Compound metabolized	Compound metabolized	Compound metabolized	Compound metabolized
COc1ccccc1OCCNCC(O)COc1cccc2[nH]c3ccccc3c12 (stereo not given) [CARVEDILOL]	Compound NOT metabolized	Compound NOT metabolized	Compound metabolized	Compound NOT metabolized	Compound metabolized	Compound NOT metabolized	Compound metabolized	Compound metabolized	Compound NOT metabolized	Compound NOT metabolized	Compound metabolized	Compound NOT metabolized	Compound NOT metabolized	Compound NOT metabolized	Compound NOT metabolized	Compound metabolized	Compound NOT metabolized	Compound NOT metabolized	Compound NOT metabolized	Compound metabolized
